Test results from patent US20200339511A1, “Substituted indoline derivatives as dengue viral replication inhibitors” (priority 2016, published 2020).
Like-named read-outs stand apart in the source and are kept apart here.

Key:
DENV-3 strain H87 = assay: Tetravalent RT-qPCR assay, serotype 3; format: cell-based, Dengue virus; details: Dengue virus, DENV3, Vero, 72 h, RT-qPCR serotype 3 H87, Protocol A, Vero cells, day 3
Procedure: (§1) Tetravalent reverse transcriptase quantitative-PCR (RT-qPCR) assay The antiviral activity of the compounds of the invention was tested against DENV-1 strain TC974#666 (NCPV), DENV-2 strain 16681, DENV-3 strain H87 (NCPV) and DENV-4 strain H241 (NCPV) in a RT-qPCR assay. Therefore, Vero cells were infected with either DENV-1, or -2, or -3, or -4 in the presence or absence of test compounds. At day 3 post-infection, the cells were lysed and cell lysates were used to prepare cDNA of both a viral target (the 3′UTR of DENV; Table 2) and a cellular reference gene (β-actin, Table 2). Subsequently, a duplex real time PCR was performed on a Lightcycler480 instrument. The generated Cp value is inversely proportional to the amount of RNA expression of these targets. Inhibition of DENV replication by a test compound results in a shift of Cp's for the 3′UTR gene. On the other hand, if a test compound is toxic to the cells, a similar effect on β-actin expression will be observed. The comparative ΔΔCp method is used to calculate EC50, which is based on the relative gene expression of the target gene (3′UTR) normalized with the cellular housekeeping gene (β-actin). In addition, CC50 values are determined based on the Cp values acquired for the housekeeping gene β-actin.
(§2) The culture medium consisted of minimal essential medium supplemented with 2% of heat-inactivated fetal calf serum, 0.04% gentamycin (50mg/mL) and 2 mM of L-glutamine. Vero cells, obtained from ECACC, were suspended in culture medium and 75 μL/well was added in 96-well plates (10000 cells/well), which already contain the antiviral compounds. […] In addition, each plate contains wells which are assigned as virus controls (containing cells and virus in the absence of compound) and cell controls (containing cells in the absence of virus and compound). Once the cells were added in the plates, the plates were incubated in a fully humidified incubator (37° C., 5% CO2) until the next day. Dengue viruses serotype-1, 2, 3 and 4 were diluted in order to obtain a Cp of ˜22-24 in the assay. Therefore, 25 μL of virus suspension was added to all the wells containing test compound and to the wells assigned as virus control. In parallel, 25 μL of culture medium was added to the cell controls. Next, the plates were incubated for 3 days in a fully humidified incubator (37° C., 5% CO2). After 3 days, the supernatant was removed from the wells and the cells were washed twice with ice-cold PBS (˜100 μL). The cell pellets within the 96-well plates were stored at −80° C. for at least 1 day. Next, RNA was extracted using the Cells-to-CT™ lysis kit, according to the manufacturer's guideline (Life Technologies). The cell lysates can be stored at −80° C. or immediately used in the reverse transcription step.
(§3) In preparation of the reverse transcription step, mix A (table 3A) was prepared and 7.57 μL/well was dispensed in a 96-well plate. After addition of 5 μL of the cell lysates, a five minute denaturation step at 75° C. was performed (table 3B). Afterwards, 7.43 μL of mix B was added (table 3C) and the reverse transcription step was initiated (table 3D) to generate cDNA.
(§4) Finally, a RT-qPCR mix was prepared, mix C (table 4A), and 22.02 μL/well was dispensed in 96-well LightCycler qPCR plates to which 3μL of cDNA was added and the qPCR was performed according to the conditions in table 4B on a LightCycler 480.
(§5) Using the LightCycler software and an in-house LIMS system, dose response curves for each compound were calculated and the half maximal effective concentration (EC50) and the half maximal cytotoxic concentration (CC50) were determined (Tables 5-8).

in vitro [1] = format: cell-based; details: African green monkey
Procedure: as §1, §2, §5

Vero cells = details: African green monkey
DENV-2 16681 strain = assay: DENV-2 antiviral assay (eGFP-labeled virus in Vero cells); format: cell-based, Dengue virus; details: DENV-2 16681 eGFP, MOI 0.5, 3 days
Procedure: The antiviral activity of all the compounds of the invention was tested the against DENV-2 16681 strain which was labeled with enhanced green fluorescent protein (eGPF). The culture medium consists of minimal essential medium supplemented with 2% of heat-inactivated fetal calf serum, 0.04% gentamycin (50 mg/mL) and 2 mM of L-glutamine. Vero cells, obtained from ECACC, were suspended in culture medium and 25 μL was added to 384-well plates (2500 cells/well), which already contain the antiviral compounds. Typically, these plates contain a 5-fold serial dilution of 9 dilution steps of the test compound at 200 times the final concentration in 100% DMSO (200 nL). […] Finally, each plate contains wells which are assigned as virus controls (containing cells and virus in the absence of compound), cell controls (containing cells in the absence of virus and compound) and medium controls (containing medium in the absence of cells, virus and compounds). To the wells assigned as medium control, 25 μL of culture medium was added instead of Vero cells. Once the cells were added to the plates, the plates were incubated for 30 minutes at room temperature to allow the cells to distribute evenly within the wells. Next, the plates were incubated in a fully humidified incubator (37° C., 5% CO2) until the next day. Then, DENV-2 strain 16681, labeled with eGFP, was added at a multiplicity of infection (MOI) of 0.5. Therefore, 15 μL of virus suspension was added to all the wells containing test compound and to the wells assigned as virus control. In parallel, 15 μL of culture medium was added to the medium and cell controls. Next, the plates were incubated for 3 days in a fully humidified incubator (37° C., 5% CO2). At the day of the read out, the eGFP fluorescence was measured using an automated fluorescence microscope at 488 nm (blue laser). Using an in-house LIMS system, inhibition dose response curves for each compound were calculated and the half maximal effective concentration (EC50) was determined. Therefore, the percent inhibition (I) for every test concentration is calculated using the following formula: I=100*(ST-SCC)/(SVC-SCC), ST, SCC and SVC are the amount of eGFP signal in the test compound, cell control and virus control wells, respectively. The EC50 represents the concentration of a compound at which the virus replication is inhibited with 50%, as measured by a 50% reduction of the eGFP fluorescent intensity compared to the virus control. The EC50 is calculated using linear interpolation (Table 1).

DENV-1 strain TC974#666 = assay: Tetravalent RT-qPCR assay, serotype 1; format: cell-based, Dengue virus; details: Dengue virus, DENV1, Vero, 72 h, RT-qPCR serotype 1 TC974#666, Protocol A, Vero cells, day 3
Procedure: as §1, §2, §3, §4, §5

DENV-4 strain H241 = assay: Tetravalent RT-qPCR assay, serotype 4; format: cell-based, Dengue virus; details: Dengue virus, DENV4, Vero, 72 h, RT-qPCR serotype 4 H241, Protocol A, Vero cells, day 3
Procedure: as §1, §2, §3, §4, §5

DENV-2 strain 16681 = assay: Tetravalent RT-qPCR assay, serotype 2; format: cell-based, Dengue virus; details: Dengue virus, DENV2, Vero, 72 h, RT-qPCR serotype 2 16681, Protocol A, Vero cells, day 3
Procedure: as §1, §2, §3, §4, §5

in vitro [2] = details: African green monkey
[3] = Dengue virus, DENV2, Vero, 72 h

Compound	EC50 (DENV-3 strain H87)	CC50 at 3 days (in vitro [1])	CC50 (Vero cells)	EC50 (DENV-2 16681 strain)	EC50 (DENV-1 strain TC974#666)	EC50 (DENV-4 strain H241; read-out: EC50)	EC50 (DENV-2 strain 16681)	EC50 (DENV-4 strain H241)	EC50 (DENV-2 16681 strain; [3])	melting point	CC50 (in vitro [2])
COc1cc(NC(C(=O)N2CCc3ccc(OC(F)(F)F)cc32)c2ccc(Cl)cc2F)cc(OCCO)c1 (single isomer, unassigned) [Compound 6B, 2-(4-chloro-2-fluorophenyl)-2-((3-(2-hydroxyethoxy)-5-methoxyphenyl)amino)-1-(6-(trifluoromethoxy)indolin-1-yl)ethanone]	28 nM	4800 nM	12000 nM	2.5 nM	3.1 nM	140 nM	2 nM	–	–	–	–
COc1cc(NC(C(=O)N2CCc3ccc(C(F)(F)F)cc32)c2ccc(Cl)cc2F)cc(OCCO)c1 (single isomer, unassigned) [Compound 2B, 2-(4-chloro-2-fluorophenyl)-2-((3-(2-hydroxyethoxy)-5-methoxyphenyl)amino)-1-(6-(trifluoromethyl)indolin-1-yl)ethanone]	29 nM	4800 nM	13000 nM	2.5 nM	2.4 nM	170 nM	3.2 nM	–	–	–	–
COc1cc(NC(C(=O)N2CCc3cc(OC)c(C(F)(F)F)cc32)c2ccc(Cl)cc2)cc(OCCO)c1 (single isomer, unassigned) [Compound 7B, 2-(4-chlorophenyl)-2-((3-(2-hydroxyethoxy)-5-methoxyphenyl)amino)-1-(5-methoxy-6-(trifluoromethyl)indolin-1-yl)ethanone]	30 nM	4100 nM	12000 nM	1 nM	5.1 nM	120 nM	0.96 nM	–	–	–	–
COc1cc(NC(C(=O)N2CCc3cc(OC)c(OC(F)(F)F)cc32)c2ccc(Cl)cc2)cc(OCCO)c1 (single isomer, unassigned) [Compound 13A, 2-(4-chlorophenyl)-2-((3-(2-hydroxyethoxy)-5-methoxyphenyl)amino)-1-(5-methoxy-6-(trifluoromethoxy)indolin-1-yl)ethanone]	43 nM	> 2500 nM	12000 nM	3.5 nM	6.3 nM	–	1.5 nM	270 nM	–	–	–
COc1cc(NC(C(=O)N2CCc3cc(OC)c(C(F)(F)F)cc32)c2ccc(Cl)cc2OC)cc(OCCO)c1 (racemic) [Compound 11, 2-(4-chloro-2-methoxyphenyl)-2-((3-(2-hydroxyethoxy)-5-methoxyphenyl)amino)-1-(5-methoxy-6-(trifluoromethyl)indolin-1-yl)ethanone]	–	–	–	–	–	–	–	–	2.3 nM	175 °C	22000 nM
COc1cc(NC(C(=O)N2CCc3ccc(OC(F)(F)F)cc32)c2ccc(Cl)cc2OC)cc(OCCO)c1 (racemic) [Compound 5, 2-(4-chloro-2-methoxyphenyl)-2-((3-(2-hydroxyethoxy)-5-methoxyphenyl)amino)-1-(6-(trifluoromethoxy)indolin-1-yl)ethanone]	–	–	–	–	–	–	–	–	4.6 nM	162 °C	9300 nM
COc1cc(NC(C(=O)N2CCc3ccc(C(F)(F)F)cc32)c2ccc(Cl)cc2OC)cc(OCCO)c1 (racemic) [Compound 1, 2-(4-chloro-2-methoxyphenyl)-2-((3-(2-hydroxyethoxy)-5-methoxyphenyl)amino)-1-(6-(trifluoromethyl)indolin-1-yl)ethanone]	–	–	–	–	–	–	–	–	5.6 nM	194 °C	13000 nM
COc1cc(NC(C(=O)N2CCc3cc(OC)c(OC(F)(F)F)cc32)c2ccc(Cl)cc2)cc(OCCO)c1 (racemic) [Compound 13, 2-(4-chlorophenyl)-2-((3-(2-hydroxyethoxy)-5-methoxyphenyl)amino)-1-(5-methoxy-6-(trifluoromethoxy)indolin-1-yl)ethanone]	–	–	–	–	–	–	–	–	4.9 nM	165 °C	13000 nM
COc1cc(NC(C(=O)N2CCc3cc(F)c(C(F)(F)F)cc32)c2ccc(Cl)cc2)cc(OCCO)c1 (racemic) [Compound 12, 2-(4-chlorophenyl)-1-(5-fluoro-6-(trifluoromethyl)indolin-1-yl)-2-((3-(2-hydroxyethoxy)-5-methoxyphenyl)amino)ethanone]	–	–	–	–	–	–	–	–	11 nM	130 °C	11000 nM
COc1cc(NC(C(=O)N2CCc3ccc(OC(F)(F)F)cc32)c2ccc(Cl)cc2)cc(OCCO)c1 (racemic) [Compound 3, 2-(4-chlorophenyl)-2-((3-(2-hydroxyethoxy)-5-methoxyphenyl)amino)-1-(6-(trifluoromethoxy)indolin-1-yl)ethanone]	–	–	–	–	–	–	–	–	5.5 nM	162 °C	9500 nM
COc1cc(NC(C(=O)N2CCc3ccc(OC(F)(F)F)cc32)c2ccc(Cl)cc2OC)cc(OCCO)c1 (single isomer, unassigned) [Compound 5A, 2-(4-chloro-2-methoxyphenyl)-2-((3-(2-hydroxyethoxy)-5-methoxyphenyl)amino)-1-(6-(trifluoromethoxy)indolin-1-yl)ethanone]	20 nM	4700 nM	–	1.4 nM	2.6 nM	210 nM	3 nM	–	–	–	9800 nM
